Each structure is given as a SMILES string.

For data set [1] the following is noted: cited from earlier work.
The nature of data set [2]: Therapeutic drug monitoring: plasma levels by HPLC-UV, dose-normalized plasma concentrations. Format: in vivo, human. The method, then: (§1) Monitoring was carried out in all cases after at least fifteen days from the start of treatment, when the plasma levels of the drug were considered at steady state. Blood samples were extracted just before ingestion of the tablet/s and at different times after ingestion. The drug was administered in the fasted state and patients were told they could eat food after the second blood sample was drawn. Sampling times, which are defined for each drug in Table 1, were selected based on the optimal sampling theory and pharmacokinetic models previously published in the scientific literature. […] The total blood volume extracted was between 4 and 5 mL for each sample. All samples were centrifuged after extraction at 3500 r.p.m. for 10 min at room temperature and the plasma obtained was frozen at −80 °C until bioanalysis.
Bioanalysis was carried out using high-performance liquid chromatography (HPLC) coupled with ultraviolet (UV) detection.
As the stationary phase, an Ultrabase® C18 chromatographic column, 4.6 mm in diameter by 150 mm in length, made of stainless steel and filled with a C18 reversed-phase siliceous substrate with a particle size of 5 µm, was used. A mixture of 40% of 0.02 M ammonium acetate, pH = 7, and 60% acetonitrile: methanol at a ratio of 70:30 (v/v) was used as the mobile phase. The linearity of the technique included a concentration range of 0.05–7.5 µg/mL. The limit of quantification was 0.5 µg/mL. Solid–liquid extraction was used and the analysis time was 9 min.
The stationary phase used was an Ultrabase® C18 chromatographic column, 4.6 mm in diameter by 150 mm in length, made of stainless steel and filled with a C18 reversed-phase siliceous substrate with a particle size of 5 µm. The mobile phase used was a 40% mixture of 0.02 M ammonium acetate, pH = 7, and 60% acetonitrile: methanol at a ratio of 70:30 (v/v). The linearity of the technique included a concentration range of 0.05–5 µg/mL. The limit of quantification was 0.5 µg/mL. Solid–liquid extraction was used and the analysis time was 10 min.
The stationary phase used was a Kromasil® C18 chromatographic column, 4.6 mm in diameter by 150 mm in length, made of stainless steel and filled with a C18 reversed-phase siliceous substrate with a particle size of 5 µm. The mobile phase used was a mixture of acetonitrile and 0.02 M ammonium acetate, pH = 3.5, at a ratio of 53:47 (v/v). The linearity of the technique included a concentration range of 0.02–10 µg/mL. The limit of quantification was 0.2 µg/mL. Liquid–liquid extraction was used and the analysis time was 12 min [51].
The stationary phase used was a Kromasil® C18 chromatographic column, 4.6 mm in diameter by 150 mm in length, made of stainless steel and filled with a C18 reversed-phase siliceous substrate with a particle size of 5 µm. The mobile phase used was a mixture of acetonitrile and 0.02 M ammonium acetate, pH = 3.5, at a ratio of 53:47 (v/v). The linearity of the technique included a concentration range of 0.1–20 µg/mL. The limit of quantification was 0.1 µg/mL. Liquid–liquid extraction was used and the analysis time was 12 min [52].
The program was compiled with the DIGITAL Visual Fortran version 6.6C program. The graphics were made with the S-Plus 6.1 Professional Edition program for Windows (Insightful, Seattle, WA, USA). A one-compartment pharmacokinetic model with first-order absorption and elimination kinetics was selected to describe erlotinib plasma concentrations, as performed previously by other authors. The fixed-effect parameters estimated by the model were V (volume of distribution, L), CL (plasma clearance, L/h) and Ka (absorption constant). The model included plasma ALT concentration and age as covariates in CL, and weight in V.
The model was parameterized in terms of D1 (zero-order absorption duration), V and CL, and included the plasma concentration of α 1-acid glycoprotein as a covariate in CL. […]

Data set [3] is described as follows: Groups of patients according to exposure and toxicity. The settings on record: for % patients, Group 3 / % patients, Group 4: Toxicities: Yes; for % patients, Group 2 / % patients, Group 4: Drug concentrations above target level: Yes. The data set is classed as in vivo, human.
The nature of data set [4]: Survival analysis (Kaplan-Meier, PFS and OS). Format: in vivo, human. The settings on record: real-world cancer patients with TDM. The method, then: (§2) Patients’ medical records were reviewed with the aim of studying all possible factors related to the patient and the medication that may influence the evolution of the plasma concentrations of TKIs. Sociodemographic and anthropometric, pharmacological treatment, clinical, toxicity and therapeutic drug monitoring data were collected. Treatment response was determined according to the […]. Adverse events were recorded by grade according to the Common Terminology Criteria for Adverse Events version 3.0 (CTCAE v 3.0).
To assess the relationship between treatments protocols and disease progression or mortality, a Kaplan–Meier survival curve was plotted.

Data set [5] in a line: TDM-guided dose adjustment recommendations per monitored cycle. The conditions noted are these: for monitored cycles with recommendation to decrease the dose: concentrations above therapeutic range; for monitored cycles with recommendation to increase the prescribed dose: concentrations below target therapeutic range; for monitored cycles with recommendation to suspend/suppress the drug: in vivo. The data set is classed as in vivo, human. The protocol: Patients included in this study received drugs at doses previously established by their doctors, according to data sheet indications and clinical judgment. In all cases, drug dose was prescribed before the patient enrolled onto this study and was not affected by this study prior to enrollment.
as §1

The nature of data set [6]: Incidence of toxicity (CTCAE grades), first vs last monitored cycle. The data set is classed as in vivo, human. The settings on record: for Toxicity: RI G1: renal insufficiency grade 1 (IR G1 for sorafenib). The protocol: as §2
To compare the variation in categorical variables (rash, diarrhea, fatigue, abdominal pain, hypertension, and mucositis) between the first and the last monitored cycle, the non-parametric chi-square test was performed.

Setting [7] is: last monitored cycle, after TDM and dose adjustments.
Where [8] appears, read: Drug concentrations above target level: No.
The mark [9] stands for this setting: last monitored cycle, after TDM and dose adjustment.

Consider `Cc1ccc(Nc2nccc(N(C)c3ccc4c(C)n(C)nc4c3)n2)cc1S(N)(=O)=O` [pazopanib], for which the “AUC when administered with food compared to fasted state” value in data set [1] is “doubled”. In data set [1] (solubility limitations in the digestive tract), the “dose above which plasma AUC does not increase” value is listed as “greater than 800 mg”.
For the compound `CS(=O)(=O)CCNCc1ccc(-c2ccc3ncnc(Nc4ccc(OCc5cccc(F)c5)c(Cl)c4)c3c2)o1` [Lapatinib, lapatinib], the “mean interpatient variability in dose-normalized plasma concentrations (CV)” value in data set [2] (first monitored cycle) amounted to 60.7%. For the same compound, the “mean interpatient variability in dose-normalized plasma concentrations (CV)” value in data set [2] (setting [7]) is on record as 56%. Moreover, the “% patients, Group 1” value in data set [3] (Drug concentrations above target level: No, Toxicities: No) was 6.2%. Besides, the “% patients, Group 3” value in data set [3] (setting [8]) is given as 18.7%. Moreover, the “% patients, Group 2” value in data set [3] (Toxicities: No) is 6.2%. The “% patients, Group 4” value in data set [3] worked out at 69.5%. For the same compound, in data set [1], the “increase in AUC with high-fat meals” value is “more than 3 fold”; the “interpatient variability in exposure, AUC” value is recorded as 42–117%; the “interpatient variability in exposure, Ctrough” value was 55–97%; the “t1/2 in severe liver failure relative to normal liver function” value was 3 fold. The “increase of mean AUC in patients with severe liver failure” value in data set [1] (vs normal liver function) is reported as “more than 60%”. For the same compound, in data set [4], the “Overall Survival, Median” value is 46 Months and the “Progression-Free Survival, Median” value worked out at 8 Months. In data set [5], the “monitored cycles with recommendation to decrease the dose” value came out at 8.6%, the “monitored cycles with recommendation to increase the prescribed dose” value is 14.3% and the “monitored cycles with recommendation to suspend/suppress the drug” value was determined as 8.6%. Further, the “monitored cycles with recommendation to maintain the current dose” value in data set [5] (concentrations within therapeutic range) is 68.6%. Besides, the toxicities detected in data set [6] (after performing TDM) was found to be 5 cases. Further, the Patients with toxicity in data set [6] (at start of treatment) is recorded as 12 (75.0) n. (%). Also, in data set [6] (first monitored cycle), the toxicities detected amounted to 25 cases. Also, in data set [6] (first vs last monitored cycle), the “reduction of toxicity events by TDM” value stood at 80%. Besides, in data set [6] (in vivo), the “Toxicity: Anemia G1” value is 3 (18.7) n. (%), the “Toxicity: Anemia G2” value is 2 (12.5) n. (%), the “Toxicity: Anemia G3” value is given as 1 (6.2) n. (%) and the “Toxicity: Diarrhea G1” value is 2 (12.5) n. (%). In data set [6] (in vivo), the “Toxicity: Diarrhea G2” value is 1 (6.2) n. (%), the “Toxicity: Diarrhea G3” value is listed as 1 (6.2) n. (%), the “Toxicity: Mucositis G3” value is given as 1 (6.2) n. (%) and the “Toxicity: Pain” value is 2 (12.5) n. (%). Besides, in data set [6] (in vivo), the “Toxicity: Skin rash G1” value is on record as 1 (6.2) n. (%); the “Toxicity: Skin rash G3” value was 1 (6.2) n. (%); the “analytical parameters related to toxicity and defined toxicities, first vs last monitored cycle” value is given as “no significant differences”; the “patients who developed toxicity at the start of treatment” value is 75%. In data set [6] (neutropenia grade 3), the “Toxicity: Neutr. G3” value is given as 2 (12.5) n. (%). For the same compound, the “Toxicity: RI G1” value in data set [6] is recorded as 6 (37.5) n. (%). The “Toxicity: RI G2” value in data set [6] (renal insufficiency grade 2) was 2 (12.5) n. (%).
Consider `CNC(=O)c1cc(Oc2ccc(NC(=O)Nc3ccc(Cl)c(C(F)(F)F)c3)cc2)ccn1` [Sorafenib, sorafenib], for which the “mean interpatient variability in dose-normalized plasma concentrations (CV)” value in data set [2] (first monitored cycle) worked out at 89.7%. Also, the “mean interpatient variability in dose-normalized plasma concentrations (CV)” value in data set [2] (setting [7]) was found to be 72.5%. Besides, in data set [3] (setting [8]), the “% patients, Group 3” value amounted to 9.1%. In addition, the “% patients, Group 2” value in data set [3] (Toxicities: No) is recorded as 54.4%. The “% patients, Group 4” value in data set [3] is recorded as 9.1%. Further, in data set [1], the “dose above which gastrointestinal absorption saturates” value is listed as “greater than 800 mg”; the “variability in exposure between patients, AUC” value is 12–117%; the “variability in exposure between patients, apparent oral Cl” value is recorded as 13–80%. For the same compound, in data set [4], the “Overall Survival, Median” value is on record as 9 Months and the “Progression-Free Survival, Median” value is 9 Months. Besides, in data set [5], the “monitored cycles with recommendation to decrease the dose” value was 6.9%, the “monitored cycles with recommendation to increase the prescribed dose” value is given as 17.2% and the “monitored cycles with recommendation to suspend/suppress the drug” value stood at 3.4%. Moreover, in data set [6] (in vivo), the “Toxicity: Abdominal pain” value is 2 (18.2) n. (%), the “Toxicity: Anemia G1” value was 2 (18.2) n. (%), the “Toxicity: Anemia G2” value is 1 (9.1) n. (%) and the “Toxicity: Diarrhea G2” value is recorded as 1 (9.1) n. (%). Also, the “patients who developed toxicity at the start of treatment” value in data set [6] (in vivo) came to 63.3%. In data set [6] (setting [9]), the patients with anemia is given as 50% and the “patients with grade 3 neutropenia” value is given as 25%. Besides, in data set [6], the “Toxicity: RI G1” value is 2 (18.2) n. (%). Moreover, the “Toxicity: Thromb. G1” value in data set [6] (trombopenia grade 1) is 1 (9.1) n. (%).
`Cc1cn(-c2cc(NC(=O)c3ccc(C)c(Nc4nccc(-c5cccnc5)n4)c3)cc(C(F)(F)F)c2)cn1` [nilotinib]: the “increase in AUC with high-fat meals” value in data set [1] is “up to 80%”.
As to `Cc1ccc(NC(=O)c2ccc(CN3CCN(C)CC3)cc2)cc1Nc1nccc(-c2cccnc2)n1` [Imatinib, imatinib], the “mean interpatient variability in dose-normalized plasma concentrations (CV)” value in data set [2] (first monitored cycle) came to 48.91%; in data set [2] (first monitored cycle, listed as imatinib), 48.9%; in data set [2] (setting [7]), 50.84%; in data set [2] (last monitored cycle, after TDM and dose adjustments, listed as imatinib), 50.8%.

The values are drawn from article PMC9228468, “Relevance of Therapeutic Drug Monitoring of Tyrosine Kinase Inhibitors in Routine Clinical Practice: A Pilot Study” (Pharmaceutics, 2022).
